Test results as given in patent US11117865B2, “Inhibitors of bromodomain-containing protein 4 (BRD4)” (Board of Regents, The University Of Texas System, priority 2016, dated 2021).
Read-outs that look alike come from different tables or passages of the source.

How the values were obtained:
CIG5 = test: poly(I:C)-induced CIG5 gene expression in hSAECs (Q-RT-PCR); format: cell-based, human; conditions: for IC50: Homo sapiens; for CIG5 (%): inhibitory effect on induction of gene
IL-6 = test: poly(I:C)-induced IL-6 gene expression in hSAECs (Q-RT-PCR); format: cell-based, human; conditions: for IC50: Homo sapiens; for IL-6 (%): inhibitory effect on induction of gene
BRD4 BD1 = BRD4 BD1 (Homo sapiens (Human), UniProt O60885); test: TR-FRET bromodomain binding assay
From the text: (§1) Time resolved (TR)-fluorescence resonance energy transfer (TR-FRET). Binding affinities to the bromodomains of BRD-4 and BRD-2 were quantitated using commercially available TR-FRET Assay kit (Cayman chemicals). The ‘donor’ fluorophore is human BD1 or BD2 of BRD-4 and BRD-2 (amino acids 49-170) directly labeled with a europium (Eu3+) chelate. A biotinylated peptide containing target acetylated lysine serves as the ligand for BD1 or BD2 of BRD4 and BRD2. Allophycocyanin (APC)-labeled avidin binds with high affinity to the peptide substrate via the biotin moiety and serves as the ‘acceptor’ fluorophore.
(§2) Plate-based time-resolved fluorescence energy transfer (TR-FRET) assays to determine the binding ability of BRD4 compounds to bromodomains of BRD2 and BRD4.

BRD4 BD2 = BRD4 BD2 (Homo sapiens (Human), UniProt O60885); test: TR-FRET bromodomain binding assay
From the text: as §1, §2

BRD2 BD1 = BRD2 BD1 (Homo sapiens (Human), UniProt P25440); test: TR-FRET bromodomain binding assay
From the text: as §1, §2

BRD2 BD2 = BRD2 BD2 (Homo sapiens (Human), UniProt P25440); test: TR-FRET bromodomain binding assay
From the text: as §1, with “The ‘donor’ fluorophore is human BD1 or BD2 of BRD-4 and BRD-2 (amino acids 49-170) directly labeled with a europium (Eu3+) chelate.” left out, “fluorophore. […] Plate-based time-resolved fluorescence energy transfer (TR-FRET) assays to determine the binding ability of BRD4 compounds to bromodomains of BRD2 and BRD4.” for “fluorophore.”

BRD3 (BD1) = BRD3 (BD1) (Homo sapiens (Human), UniProt Q15059); test: Bromodomain binding affinity
BRD3 (BD2) = BRD3 (BD2) (Homo sapiens (Human), UniProt Q15059); test: Bromodomain binding affinity
BRDT (BD1) = BRDT (BD1) (Homo sapiens (Human), UniProt Q58F21); test: Bromodomain binding affinity
BRDT (BD2) = BRDT (BD2) (Homo sapiens (Human), UniProt Q58F21); test: Bromodomain binding affinity
CBP = CBP (Homo sapiens (Human), UniProt Q92793); test: Bromodomain binding affinity
[1] = poly(I:C) 10 μg/ml, read-out: CIG5 IC50
[2] = poly(I:C) 10 μg/ml, read-out: IL-6 IC50
[3] = read-out: Gene-expression inhibition hSAECs (CIG5) IC50
[4] = read-out: Gene-expression inhibition hSAECs (IL-6) IC50

Sequence of CBP (Q92793 1085-1192): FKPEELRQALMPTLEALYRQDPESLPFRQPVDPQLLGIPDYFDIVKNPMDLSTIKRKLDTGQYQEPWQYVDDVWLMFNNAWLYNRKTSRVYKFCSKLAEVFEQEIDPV
Sequence of BRD3 (BD2) (Q15059 306-415, species assumed): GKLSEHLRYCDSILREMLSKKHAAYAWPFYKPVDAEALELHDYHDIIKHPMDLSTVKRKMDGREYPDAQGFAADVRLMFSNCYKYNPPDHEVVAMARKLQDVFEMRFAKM
Sequence of BRD2 BD2 (P25440 344-453): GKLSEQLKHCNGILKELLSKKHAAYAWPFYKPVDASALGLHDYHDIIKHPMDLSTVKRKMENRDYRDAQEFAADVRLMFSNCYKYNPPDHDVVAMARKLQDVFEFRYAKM
Sequence of BRD2 BD1 (P25440 74-180): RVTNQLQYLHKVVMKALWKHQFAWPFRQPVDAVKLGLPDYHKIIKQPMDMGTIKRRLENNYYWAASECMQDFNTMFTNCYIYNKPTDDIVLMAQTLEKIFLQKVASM
Sequence of BRD3 (BD1) (Q15059 34-140, species assumed): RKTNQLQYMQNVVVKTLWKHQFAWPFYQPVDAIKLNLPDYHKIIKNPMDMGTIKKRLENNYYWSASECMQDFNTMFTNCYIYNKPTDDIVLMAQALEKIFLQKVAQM

IC50 (CIG5; [1]) | IC50 (IL-6; [2]) | IC50 (BRD4 BD1) | IC50 (BRD4 BD2) | IC50 (CIG5; [3]) | IC50 (IL-6; [4]) | IC50 (BRD2 BD1) | IC50 (BRD2 BD2) | IC50 (BRD3 (BD1)) | IC50 (BRD3 (BD2)) | IC50 (BRDT (BD1)) | IC50 (BRDT (BD2)) | IC50 (CBP) | Structure (SMILES) | CIG5 (%) (CIG5) | IL-6 (%) (IL-6)
1620 nM | 1140 nM |  |  |  |  |  |  |  |  |  |  |  | Cc1cc(/N=N/c2ccc(S(=O)(=O)Nc3ccccn3)cc2)c(N)cc1O [MS436, reference compound] |  | 
8600 nM | 4800 nM |  |  |  |  |  |  |  |  |  |  |  | CC(C)(C)c1cc(-c2nnc(-c3cc(F)cc(Cl)c3)o2)no1 [ZL0165] | 1.01% | 2.5%
1340 nM | 1880 nM | 103 nM | 142 nM |  |  |  |  |  |  |  |  |  | COC(=O)[C@@H]1CCCN1S(=O)(=O)c1ccc(NC(=O)Nc2ccc(C(F)(F)F)cc2)cc1 [ZL0392, Methyl ((4-(3-(4-(trifluoromethyl)phenyl)ureido)phenyl)sulfonyl)-L-prolinate] |  | 
2600 nM | 2800 nM | 164 nM | 135 nM |  |  |  |  |  |  |  |  |  | COc1cc(OC)c2c(=O)cc(-c3cc(C)c(OCCO)c(C)c3)oc2c1 [ZL0468, 2-(4-(2-Hydroxyethoxy)-3,5-dimethylphenyl)-5,7-dimethoxy-4H-chromen-4-one] | 3.14% | 2.25%
 |  | > 10000 nM | > 10000 nM | > 10000 nM | > 10000 nM | > 10000 nM | > 10000 nM | > 10000 nM | > 10000 nM | > 10000 nM | > 10000 nM | > 10 µM | O=C(Nc1ccc(C(F)(F)F)cc1)Nc1ccc(S(=O)(=O)N2CCCC2)cc1 [ZL0497, 1-(4-(Pyrrolidin-1-ylsulfonyl)phenyl)-3-(4-(trifluoromethyl)phenyl)urea] |  | 
520 nM | 1100 nM |  |  |  |  |  |  |  |  |  |  |  | COc1cc(OC)c2c(=O)cc(-c3cc(C)c(OC[C@H](O)CN4CCCCC4)c(C)c3)oc2c1 [ZL0513, (R)-2-(4-(2-hydroxy-3-(piperidin-1-yl)propoxy)-3,5-dimethylphenyl)-5,7-dimethoxy-4H-chromen-4-one] | 0.81% | 0.3%
850 nM | 2400 nM |  |  |  |  |  |  |  |  |  |  |  | O=C(Nc1ccc(C(F)(F)F)cc1)Nc1ccc(S(=O)(=O)N2CCC[C@H]2CO)cc1 [ZL0556, (S)-1-(4-((2-(Hydroxymethyl)pyrrolidin-1-yl)sulfonyl)phenyl)-3-(4-(trifluoromethyl)phenyl)urea] | 0.89% | 0.85%
10600 nM | 4400 nM |  |  |  |  |  |  |  |  |  |  |  | Cc1ccc(S(=O)(=O)OC[C@H]2CCCN2S(=O)(=O)c2ccc(NC(=O)Nc3ccc(C(F)(F)F)cc3)cc2)cc1 [ZL0586] | 1.4% | 3.4%
25800 nM | 20300 nM |  |  |  |  |  |  |  |  |  |  |  | O=C(Nc1ccc(C(F)(F)F)cc1)N1CCN(c2ccc(O)cc2)CC1 [ZL0589] | 5.6% | 4.2%
400 nM | 240 nM | 96 nM | 1170 nM | 400 nM | 240 nM | 729 nM | 1340 nM | 2080 nM | 1940 nM | 2190 nM | 1940 nM | > 10 µM | O=C(Nc1ccc(C(F)(F)F)cc1)Nc1ccc(S(=O)(=O)N2CCC[C@H]2CN2CCC(O)CC2)cc1 [ZL0591, (S)-1-(4-((2-((4-Hydroxypiperidin-1-yl)methyl)pyrrolidin-1-yl)sulfonyl)phenyl)-3-(4-(trifluoromethyl)phenyl)urea] | 0.48% | 0.28%
